Measurements from US9062060B2, “Substituted imidazo[2,1-A]isoindoles as PDE10 inhibitors” (H. Lundbeck A/S, priority 2010, dated 2015).

Legend:
[1] = system: PCP induced hyperactivity in male mice (NMRI); assay: Phencyclidine (PCP) induced hyperactivity; format: in vivo; conditions: at 5 mg/kg, per os 60 min before PCP 2.3 mg/kg s.c.
Experimental: Male mice (NMRI, Charles River) weighing 20-25 g are used. Eight mice are used in each group receiving the test compound (5 mg/kg) plus PCP (2.3 mg/kg) including the parallel control groups receiving the vehicle of the test compound plus PCP or vehicle injections only. The injection volumen is 10 ml/kg. The experiment is made in normal light conditions in an undisturbed room. The test substance is injected per oss 60 min before injection of PCP, which is administered subcutaneous.
Immediately after injection of PCP the mice are placed individually in special designed test cage (20 cm×32 cm). The activity is measured by 5×8 infrared light sources and photocells spaced by 4 cm. The light beams cross the cage 1.8 cm above the bottom of the cage. Recording of a motility count requires interruption of adjacent light beams, thus avoiding counts induced by stationary movements of the mice.
Motility is recorded in 5 min intervals for a period of 1 hour. The drug effect is calculated on the total counts during the 1 hour behavioral test period in the following manner. […] The 100 percent effect of PCP is accordingly calculated to be total motility counts minus baseline. The response in groups receiving test compound is thus determined by the total motility counts minus baseline, expressed in percent of the similar result recorded in the parallel PCP control group. […]

catalepsy in rats = conditions: cited from earlier work
[2] = system: hyperactivity in rats induced by PCP; conditions: cited from earlier work

| SMILES | Inhibition of PCP induced hyperactivity [1] | Effect on the cataleptic effect of the D2 receptor antagonist haloperidol (catalepsy in rats; combined with haloperidol) | Catalepsy on its own (catalepsy in rats; papaverine alone) | Effect on hyperactivity induced by PCP [2] |
| --- | --- | --- | --- | --- |
| Cc1ncc(C)n2nc(CCc3cn4c(n3)-c3ccccc3C4)nc12 [2-[-2-(5,8-Dimethyl-[1,2,4]triazolo[1,5-a]pyrazin-2-yl)-ethyl]-5H-imidazo[2,1-a]isoindole] | 100% |  |  |  |
| COc1ccc(Cc2nccc3cc(OC)c(OC)cc23)cc1OC [Papaverine] |  | potentiated the cataleptic effect | did not cause catalepsy on its own | reduced hyperactivity |
